From patent US20230113037A1 (Bayer Aktiengesellschaft, priority 2019, published 2023)
Like-named read-outs stand apart in the source and are kept apart here.

Experiments:
AHR [1] = target: T1, AHR (Mus musculus, UniProt P30561); test: In vitro assay 3: antagonism in mouse cell line (AHR transactivation, firefly luciferase reporter, kynurenic acid prestimulated); type: cell-based; conditions: 200 μM kynurenic acid, 20 hours, read-out: AHR Antagonism Mouse IC50
T1 sequence (P30561 1-848 P471L/N533S/M589L): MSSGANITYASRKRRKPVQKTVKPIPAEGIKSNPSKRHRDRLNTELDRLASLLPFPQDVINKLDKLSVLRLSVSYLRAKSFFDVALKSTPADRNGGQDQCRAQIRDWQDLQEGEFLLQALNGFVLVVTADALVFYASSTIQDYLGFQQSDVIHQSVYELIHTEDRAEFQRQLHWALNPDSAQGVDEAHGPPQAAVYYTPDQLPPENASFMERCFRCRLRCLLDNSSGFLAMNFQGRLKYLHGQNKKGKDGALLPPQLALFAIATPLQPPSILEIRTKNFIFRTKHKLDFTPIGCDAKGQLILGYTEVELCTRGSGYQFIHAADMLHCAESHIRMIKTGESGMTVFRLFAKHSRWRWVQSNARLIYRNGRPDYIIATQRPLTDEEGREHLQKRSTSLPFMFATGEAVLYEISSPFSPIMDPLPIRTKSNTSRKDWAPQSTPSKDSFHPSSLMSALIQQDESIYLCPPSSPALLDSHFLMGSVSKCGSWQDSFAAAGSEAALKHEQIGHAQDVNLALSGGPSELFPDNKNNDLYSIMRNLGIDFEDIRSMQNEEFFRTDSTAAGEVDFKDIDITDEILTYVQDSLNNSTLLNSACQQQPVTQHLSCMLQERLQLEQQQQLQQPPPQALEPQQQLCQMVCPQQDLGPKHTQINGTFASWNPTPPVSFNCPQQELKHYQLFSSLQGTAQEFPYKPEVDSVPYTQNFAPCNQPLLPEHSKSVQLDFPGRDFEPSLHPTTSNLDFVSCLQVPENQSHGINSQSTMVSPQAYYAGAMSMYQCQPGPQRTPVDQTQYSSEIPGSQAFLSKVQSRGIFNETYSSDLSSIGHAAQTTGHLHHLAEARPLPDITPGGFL
Procedure, shortened: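 Mouse cells stably carrying a DRE-driven, AHR-inducible firefly luciferase reporter were prestimulated with the endogenous agonist kynurenic acid before compound addition. Luciferase activity was measured by luminescence and normalized to positive and negative controls, with cells lacking kynurenic acid serving as full-inhibition control. Repeat tests are reported as mean or median.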

AHR [2] = target: T2, AHR (Homo sapiens, UniProt P35869); test: In vitro assay 1: antagonism in human cell line (AHR transactivation, firefly luciferase reporter, kynurenic acid prestimulated); type: cell-based; conditions: AHR Antagonism Human IC50 [M]
T2 construct: U87 MG glioblastoma cells (ATCC #HTB-14) endogenously expressing AHR; endogenous in cells; host or cells: U87 MG glioblastoma cells (ATCC #HTB-14)
T2 sequence (P35869 11-848): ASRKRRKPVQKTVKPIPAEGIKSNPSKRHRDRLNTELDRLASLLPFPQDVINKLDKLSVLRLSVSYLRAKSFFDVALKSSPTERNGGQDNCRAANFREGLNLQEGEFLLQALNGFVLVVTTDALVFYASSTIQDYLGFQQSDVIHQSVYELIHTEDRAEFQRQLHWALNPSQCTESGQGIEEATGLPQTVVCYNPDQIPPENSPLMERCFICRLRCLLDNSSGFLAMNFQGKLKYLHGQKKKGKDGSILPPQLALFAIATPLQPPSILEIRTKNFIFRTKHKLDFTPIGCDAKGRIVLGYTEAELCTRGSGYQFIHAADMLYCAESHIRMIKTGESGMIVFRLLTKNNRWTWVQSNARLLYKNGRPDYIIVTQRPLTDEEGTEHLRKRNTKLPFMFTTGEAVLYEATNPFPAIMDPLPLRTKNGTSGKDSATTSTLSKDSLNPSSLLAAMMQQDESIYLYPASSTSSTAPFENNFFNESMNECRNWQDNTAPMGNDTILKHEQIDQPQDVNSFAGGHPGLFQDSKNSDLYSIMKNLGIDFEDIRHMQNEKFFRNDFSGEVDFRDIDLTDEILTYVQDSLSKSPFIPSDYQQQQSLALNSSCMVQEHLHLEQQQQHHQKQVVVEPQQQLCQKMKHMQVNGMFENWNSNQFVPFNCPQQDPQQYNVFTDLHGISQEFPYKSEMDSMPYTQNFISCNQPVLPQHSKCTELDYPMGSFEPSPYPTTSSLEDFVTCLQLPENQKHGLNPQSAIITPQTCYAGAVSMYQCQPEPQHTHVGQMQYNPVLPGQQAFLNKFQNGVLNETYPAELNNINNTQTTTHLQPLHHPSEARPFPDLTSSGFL
Procedure, shortened: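 U87 MG + DRE-firefly/constitutive-Renilla stable reporters; kynurenic acid prestim; dual-luc read; Renilla = tox; normalized vs pos/neg controls (pos: 150 μM KYNA + 5 μM staurosporine).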

[3] = Hepa 1c1c7 cells, firefly luciferase reporter

Compound	IC50 (AHR [1]; mouse Hepa 1c1c7 cells)	IC50 (AHR [2])	IC50 (AHR [1]; [3])	IC50 (AHR [2]; firefly luciferase reporter)
COc1ccc(-c2nc3c4cccc(SC)c4nc(N[C@@H]4CCCCNC4=O)n3n2)cc1 [Example 766, (3R)-3-{[2-(4-methoxyphenyl)-7-(methylsulfanyl)[1,2,4]triazolo[1,5-c]quinazolin-5-yl]amino}azepan-2-one]	47 nM	1.64e-08 M	–	–
COc1cccc(-c2nc3c4ccccc4nc(N[C@@H](CCCCNC(=O)OC(C)(C)C)C(N)=O)n3n2)c1 [Example 101, tert-butyl[(5S)-6-amino-5-{[2-(3-methoxyphenyl)[1,2,4]triazolo[1,5-c]quinazolin-5-yl]amino}-6-oxohexyl]carbamate]	145 nM	3.48e-06 M	–	–
Cc1nn(C(C)C)cc1-c1nc2c3cccc(C(F)(F)F)c3nc(N[C@@H]3CCCCNC3=O)n2n1 [Example 748, (3R)-3-({2-[3-methyl-1-(propan-2-yl)-1H-pyrazol-4-yl]-7-(trifluoromethyl)[1,2,4]triazolo[1,5-c]quinazolin-5-yl}amino)azepan-2-one]	0.656 nM	3.9e-10 M	–	–
Cn1cc(-c2nc3c4cccc(Br)c4nc(N[C@@H]4CCCCNC4=O)n3n2)cn1 [Example 212, (3R)-3-{[7-bromo-2-(1-methyl-1H-pyrazol-4-yl)[1,2,4]triazolo[1,5-c]quinazolin-5-yl]amino}azepan-2-one]	2.49 nM	9.71e-10 M	–	–
O=C1NCCNC[C@H]1Nc1nc2ccccc2c2nc(-c3ccc(OC4CC4)cc3)nn12 [Example 411, (6R)-6-({2-[4-(cyclopropyloxy)phenyl][1,2,4]triazolo[1,5-c]quinazolin-5-yl}amino)-1,4-diazepan-5-one]	11.2 nM	1.77e-07 M	–	–
C[C@@H](Nc1nc2c(Br)cccc2c2nc(-c3cnn(C)c3)nn12)C(=O)NCCN1CCN(C)CC1 [Example 783, N^2-[7-bromo-2-(1-methyl-1H-pyrazol-4-yl)[1,2,4]triazolo[1,5-c]quinazolin-5-yl]-N-[2-(4-methylpiperazin-1-yl)ethyl]-D-alaninamide]	–	–	291 nM	1.71e-07 M
O=C1NCCCC[C@H]1Nc1nc2ccccc2c2nc(-c3ccn4ccnc4c3)nn12 [Example 390, (3R)-3-{[2-(Imidazo[1,2-a]pyridin-7-yl)[1,2,4]triazolo[1,5-c]quinazolin-5-yl]amino}azepan-2-one]	1.02 nM	1.38e-09 M	–	–
COc1ccc(-c2nc3c4cccc(Br)c4nc(N[C@@H](C(=O)NCCN4CCN(C)CC4)C(C)C)n3n2)cc1 [Example 924, N^2-[7-bromo-2-(4-methoxyphenyl)[1,2,4]triazolo[1,5-c]quinazolin-5-yl]-N-[2-(4-methylpiperazin-1-yl)ethyl]-D-valinamide]	–	–	3.8 nM	6.71e-09 M
COc1ccc(-c2nc3c4cccc(OCCC(F)(F)F)c4nc(N[C@@H]4CCCCNC4=O)n3n2)cc1 [Example 670, (3R)-3-{[2-(4-methoxyphenyl)-7-(3,3,3-trifluoropropoxy)[1,2,4]triazolo[1,5-c]quinazolin-5-yl]amino}azepan-2-one]	160 nM	2.78e-07 M	–	–
CC[C@H](Nc1nc2c(C(F)(F)F)cccc2c2nc(-c3ccnn3C)nn12)C(N)=O [Example 805, (2S)-2-{[2-(1-methyl-1H-pyrazol-5-yl)-7-(trifluoromethyl)[1,2,4]triazolo[1,5-c]quinazolin-5-yl]amino}butanamide]	–	–	70.4 nM	1.9e-07 M
O=C1NCCCC[C@H]1Nc1nc2c(Br)cccc2c2nc(-c3ccncc3)nn12 [Example 216, (3R)-3-{[7-bromo-2-(pyridin-4-yl)[1,2,4]triazolo[1,5-c]quinazolin-5-yl]amino}azepan-2-one]	12.1 nM	3.35e-09 M	–	–
COc1cccc(-c2nc3c4ccccc4nc(N[C@H](C)C(=O)N(C)C)n3n2)c1 [Example 110, N^2-[2-(3-methoxyphenyl)[1,2,4]triazolo[1,5-c]quinazolin-5-yl]-N,N-dimethyl-D-alaninamide]	4.9 nM	1.01e-08 M	–	–
CCn1cc(-c2nc3c4cccc(Br)c4nc(N[C@@H]4CNCCNC4=O)n3n2)c(C)n1 [Example 974]	–	–	1.86 nM	8.12e-10 M
O=C1NCCCC[C@H]1Nc1nc2ccccc2c2nc(-c3ccc(O)cc3F)nn12 [Example 634, (3R)-3-{[2-(2-fluoro-4-hydroxyphenyl)[1,2,4]triazolo[1,5-c]quinazolin-5-yl]amino}azepan-2-one]	206 nM	9.09e-08 M	–	–
COc1cccc(-c2nc3c4cc(F)ccc4nc(NC4CCNC4=O)n3n2)c1 (single isomer, unassigned) [Example 187, 3-{[9-fluoro-2-(3-methoxyphenyl)[1,2,4]triazolo[1,5-c]quinazolin-5-yl]amino}pyrrolidin-2-one]	321 nM	6.04e-08 M	–	–
Cn1cc(-c2nc3c4cccc(F)c4nc(N[C@@H]4CCCCNC4=O)n3n2)cn1 [Example 551, (3R)-3-{[7-fluoro-2-(1-methyl-1H-pyrazol-4-yl)[1,2,4]triazolo[1,5-c]quinazolin-5-yl]amino}azepan-2-one]	13.8 nM	1.17e-08 M	–	–
O=C1NCCNC[C@H]1Nc1nc2c(Br)cccc2c2nc(-c3cnn(CC4CCC4)c3)nn12 [Example 982, (6R)-6-({7-bromo-2-[1-(cyclobutylmethyl)-1H-pyrazol-4-yl][1,2,4]triazolo[1,5-c]quinazolin-5-yl}amino)-1,4-diazepan-5-one]	–	–	20.6 nM	9.42e-09 M
O=C1NCCCC[C@H]1Nc1nc2ccccc2c2nc(-c3ccco3)nn12 [Example 130, (3R)-3-{[2-(furan-2-yl)[1,2,4]triazolo[1,5-c]quinazolin-5-yl]amino}azepan-2-one]	5.82 nM	4.55e-09 M	–	–
CN1CC[C@@H](Nc2nc3c(C(F)(F)F)cccc3c3nc(-c4cnn(C)c4)nn23)C1=O [Example 733, (3R)-1-methyl-3-{[2-(1-methyl-1H-pyrazol-4-yl)-7-(trifluoromethyl)[1,2,4]triazolo[1,5-c]quinazolin-5-yl]amino}pyrrolidin-2-one]	6640 nM	2.58e-07 M	–	–
COc1ccc(-c2nc3c4cccc(Br)c4nc(N[C@@H](C(=O)N4CCN(C)CC4)C(C)C)n3n2)cc1 [Example 922, (2R)-2-{[7-bromo-2-(4-methoxyphenyl)[1,2,4]triazolo[1,5-c]quinazolin-5-yl]amino}-3-methyl-1-(4-methylpiperazin-1-yl)butan-1-one]	–	–	2.03 nM	2.47e-09 M
CN1CCC(n2cc(-c3nc4c5ccccc5nc(N[C@@H]5CCCCNC5=O)n4n3)cn2)CC1 [Example 596, (3R)-3-({2-[1-(1-methylpiperidin-4-yl)-1H-pyrazol-4-yl][1,2,4]triazolo[1,5-c]quinazolin-5-yl}amino)azepan-2-one]	3140 nM	4.08e-06 M	–	–
COc1ccc(-c2nc3c4cccc(Br)c4nc(N[C@H]4CCCCNC4=O)n3n2)c(C(F)(F)F)c1 [Example 570, (3S)-3-({7-bromo-2-[4-methoxy-2-(trifluoromethyl)phenyl][1,2,4]triazolo[1,5-c]quinazolin-5-yl}amino)azepan-2-one]	80.7 nM	8.08e-07 M	–	–
